The numbers were not newly measured in patent US20230175054A1, “LASH METHODS FOR SINGLE MOLECULE SEQUENCING & TARGET NUCLEIC ACID DETECTION” (SARMAL, INC., priority 2020, published 2023), which cites them from elsewhere.

The target of one series is T1, Apoaequorin (Aequorea victoria, UniProt P02592).
T1 sequence (P02592 8-196): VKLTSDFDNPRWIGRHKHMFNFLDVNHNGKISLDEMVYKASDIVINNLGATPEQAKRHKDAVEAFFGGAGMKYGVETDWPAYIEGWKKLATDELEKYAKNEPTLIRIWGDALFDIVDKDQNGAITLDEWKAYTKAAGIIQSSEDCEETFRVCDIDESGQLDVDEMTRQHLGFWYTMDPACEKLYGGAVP
Conditions: for λem (nm): luminescence emission with Apoaequorin; for Half-rise time / Relative intensity / Relative luminescence capacity: with Apoaequorin.

A further series has as its target T2, Renilla Luciferase (Renilla reniformis, UniProt P27652).
T2 sequence (P27652 1-311): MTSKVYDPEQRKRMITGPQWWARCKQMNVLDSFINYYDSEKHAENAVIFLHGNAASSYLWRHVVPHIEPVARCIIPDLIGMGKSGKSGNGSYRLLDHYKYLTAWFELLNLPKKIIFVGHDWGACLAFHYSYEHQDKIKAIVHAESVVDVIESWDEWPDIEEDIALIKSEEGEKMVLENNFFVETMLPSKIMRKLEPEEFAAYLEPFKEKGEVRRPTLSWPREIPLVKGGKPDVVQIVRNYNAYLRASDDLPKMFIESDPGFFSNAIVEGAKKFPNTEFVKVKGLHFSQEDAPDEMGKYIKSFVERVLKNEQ
The settings on record: for λem (nm): luminescence emission with Renilla Luciferase; for Initial Intensity (%) / Total Light (%): with Renilla Luciferase.

Coelenterazine n: at Apoaequorin, the “λem (nm)” value is given as 467 nm, the “Half-rise time” value is recorded as 5 s, the Relative intensity is on record as 0.01 and the Relative luminescence capacity is given as 0.26.

Coelenterazine h: at Apoaequorin, the “λem (nm)” value is given as 475 nm, the “Half-rise time” value was 0.4 to 0.8 s, the Relative intensity is given as 10 and the Relative luminescence capacity was 0.82.

Regarding `Oc1ccc(Cc2nc3c(CC4CCCC4)nc(-c4ccc(O)cc4)cn3c2O)cc1` [Cp, Coelenterazine cp], on Apoaequorin, the “λem (nm)” value was 442 nm, the “Half-rise time” value was 0.15 to 0.3 s, the Relative intensity was 15 and the Relative luminescence capacity is given as 0.95. For the same molecule, on Renilla Luciferase, the “λem (nm)” value is given as 470 nm, the “Initial Intensity (%)” value is given as 135% and the “Total Light (%)” value is on record as 23%.

For `Oc1ccc(Cc2nc3c(Cc4ccccc4)nc(-c4ccc(O)cc4)cn3c2O)cc1` [Native, Coelenterazine], on Apoaequorin, the “λem (nm)” value was 465 nm, the “Half-rise time” value was 0.4 to 0.8 s, the Relative intensity is 1.00 and the Relative luminescence capacity is listed as 1.0.

Turning to Coelenterazine f, on Apoaequorin, the “λem (nm)” value is reported as 473 nm, the “Half-rise time” value was 0.4 to 0.8 s, the Relative intensity is 18 and the Relative luminescence capacity is recorded as 0.80. Further, on Renilla Luciferase, the “λem (nm)” value is recorded as 473 nm, the “Initial Intensity (%)” value is recorded as 45% and the “Total Light (%)” value was 28%.

As for `O=c1c(Cc2ccc(I)cc2)nc2c(Cc3ccccc3)[nH]c(-c3ccc(O)cc3)cn1-2` [i, Coelenterazine i], at Apoaequorin, the “λem (nm)” value is given as 476 nm, the “Half-rise time” value is 8 s, the Relative intensity was 0.03 and the Relative luminescence capacity is 0.70.

As for `Oc1ccc(-c2cn3c(O)c(Cc4ccc(F)cc4)nc3c(CC3CCCC3)n2)cc1` [fcp, Coelenterazine fcp], at Apoaequorin, the “λem (nm)” value was 452 nm, the “Half-rise time” value is 0.4 to 0.8 s, the Relative intensity is on record as 135 and the Relative luminescence capacity is on record as 0.57.

For the molecule `Oc1ccc(-c2cn3c(O)c(Cc4ccccc4)nc3c(CC3CCCC3)n2)cc1` [hcp, Coelenterazine hcp], on Apoaequorin, the “λem (nm)” value is on record as 444 nm, the Relative intensity is 190 and the Relative luminescence capacity was 0.67.

Turning to Coelenterazine ip, at Apoaequorin, the “λem (nm)” value is reported as 441 nm, the “Half-rise time” value is 1 s, the Relative intensity was 47 and the Relative luminescence capacity is 0.54.
